Assay results published in patent publication US10040789B2, “1,3,4-thiadiazole compounds and their use in treating cancer” (AstraZeneca AB, priority 2015, dated 2018).
Read-outs that look alike come from different tables or passages of the source.

What was measured:
NCI-H1703 cells = test: GLS Cell Proliferation Assay (NCI-H1703 cell proliferation); assay type: cell-based
Description: (§1) The following assays were used to measure the effects of the compounds described herein: a) GLS Enzyme Potency Assay; b) GLS Cell Potency Assay; c) GLS Cell Proliferation Assay. During the description of the assays, generally: • i. The following abbreviations have been used: CO2=Carbon dioxide; DMEM=Dulbecco's Modified Eagle Medium; DMSO=Dimethyl sulphoxide; EDTA=Ethylenediaminetetraacetic acid; EGTA=Ethylene glycol tetraacetic acid; FCS=Foetal calf serum; h=Hour(s); NBS=Non-binding surface; SDS=Sodium dodecyl sulphate; TRIS=Tris(Hydroxymethyl)aminomethane. • ii. IC50 values were calculated using a smart fitting model in Genedata.
Assay c): GLS Cell Proliferation Assay
The ability of compounds to inhibit cell growth was measured using a 384 well plate NCI-H1703 cell proliferation assay. NCI-H1703 cells were grown in phenol red free RPMI1640, 10% FCS and 2 mM glutamine and seeded at a density of 750 cells per well in 40 μl of growth medium into clear-bottom 384 well assay plates (Corning product code 3712) and incubated for 24 h at 37° C., 5% CO2. Test compounds were prepared by dilution in 100% DMSO to give the correct dose range for 12 point concentration response and an appropriate volume (5-120 nl) dispensed directly into the assay plates containing plated cells. DMSO concentration was maintained at 0.3% by back filling with DMSO solution. Plates were incubated for 5 days at 37° C., 5% CO2, Sytox Green and Saponin added to final concentration of 2 μM and 0.25% respectively and incubated for 6 h prior to analysis. Plates were read on an Acumen eX3 (TTP Labtech) using 488 nm excitation and FITC filter set (500-530 nm) for emission. IC50 values were calculated by curve fitting to max inhibition of day zero growth using GeneData software analysis.

[1] = molecular target: cellular GLS activity in PC3 cells (Homo sapiens (Human), UniProt O94925); test: GLS Cell Potency Assay (PC3 coupled assay measuring cellular glutamate depletion); assay type: cell-based; details: PC3 cells, 6 h incubation, cellular glutamate depletion; read-out: Assay b) GLS cell MOA Mean IC50
Sequence of cellular GLS activity in PC3 cells (O94925 55-669): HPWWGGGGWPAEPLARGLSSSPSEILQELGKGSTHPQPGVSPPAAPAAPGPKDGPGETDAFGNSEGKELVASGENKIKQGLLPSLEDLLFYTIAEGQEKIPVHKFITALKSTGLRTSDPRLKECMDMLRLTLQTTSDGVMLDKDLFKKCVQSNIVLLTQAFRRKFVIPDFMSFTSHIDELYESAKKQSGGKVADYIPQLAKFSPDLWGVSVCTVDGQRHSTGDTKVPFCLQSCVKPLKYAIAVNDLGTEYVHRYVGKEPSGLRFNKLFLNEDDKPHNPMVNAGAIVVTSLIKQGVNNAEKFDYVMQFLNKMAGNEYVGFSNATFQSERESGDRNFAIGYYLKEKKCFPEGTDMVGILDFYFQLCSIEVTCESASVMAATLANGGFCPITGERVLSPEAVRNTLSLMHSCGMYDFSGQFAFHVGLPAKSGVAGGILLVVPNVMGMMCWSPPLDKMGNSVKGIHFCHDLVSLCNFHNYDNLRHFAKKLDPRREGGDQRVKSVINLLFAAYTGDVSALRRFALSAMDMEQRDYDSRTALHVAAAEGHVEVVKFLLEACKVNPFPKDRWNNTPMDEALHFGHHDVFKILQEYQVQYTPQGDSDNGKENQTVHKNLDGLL
Description: as §1
Assay b): GLS Cell Potency Assay
Compounds were assessed for their potential to inhibit cellular GLS activity by use of a PC3 coupled assay measuring cellular glutamate depletion. […] DMSO concentration was maintained at 0.3% by back filling with DMSO solution. PC3 cells were grown in phenol free DMEM, 10% dialyzed FCS, 2 mM glutamine and following dispersal by trypsinisation were plated at 5.6×10^3 cells per well in 40 μl of growth medium directly into the 384 well assay plates containing dispensed compound. After incubation for 6 h at 37° C., 5% CO2 growth media was aspirated and cells lysed in 15 μl of buffer containing 10 mM TRIS pH7.4, 100 mM NaCl, 1 mM EDTA, 1 mM EGTA, 1 mM NaF, 20 mM Na4P2O7, 2 mM Na3VO4, 1% Triton X-100, 10% glycerol, 0.1% SDS and 0.5% deoxycholate. 4 μl Of cell lysate was then transferred to a 384 well NBS plate (Corning product code 3575) and 35 μl of […] Amplex Red, 0.1375 U/mL Horseradish Peroxidase, 0.044 U/mL glutamate oxidase, 100 mM TRIS pH7.5 was added.

GLS1 = GLS1 (Homo sapiens (Human), UniProt O94925); test: GLS Enzyme Potency Assay (Glutamate Oxidase/AmplexRed coupled assay); assay type: biochemical
Sequence of GLS1 (O94925 63-669): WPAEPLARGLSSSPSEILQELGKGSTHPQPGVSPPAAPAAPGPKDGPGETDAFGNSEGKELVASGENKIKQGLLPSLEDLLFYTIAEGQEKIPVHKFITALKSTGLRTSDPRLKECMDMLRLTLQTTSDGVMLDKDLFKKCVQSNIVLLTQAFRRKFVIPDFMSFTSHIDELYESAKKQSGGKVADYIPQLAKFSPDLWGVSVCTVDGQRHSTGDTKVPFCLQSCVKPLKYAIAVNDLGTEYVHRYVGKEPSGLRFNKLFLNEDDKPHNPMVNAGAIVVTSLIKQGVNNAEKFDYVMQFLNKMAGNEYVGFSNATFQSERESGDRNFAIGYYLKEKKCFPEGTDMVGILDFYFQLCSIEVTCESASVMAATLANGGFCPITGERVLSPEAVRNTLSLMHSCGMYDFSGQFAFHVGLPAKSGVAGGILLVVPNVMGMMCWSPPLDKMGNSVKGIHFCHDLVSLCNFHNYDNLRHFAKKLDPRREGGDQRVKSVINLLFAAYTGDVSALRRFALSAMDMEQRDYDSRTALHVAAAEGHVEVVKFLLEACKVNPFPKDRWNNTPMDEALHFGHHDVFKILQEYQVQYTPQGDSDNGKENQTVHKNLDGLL
Description: as §1
Assay a): GLS Enzyme Potency Assay
A Glutamate Oxidase/AmplexRed coupled assay was used to measure the ability of compounds to bind to and inhibit the activity of GLS1 in vitro. […] GLS1 was diluted to 2×working concentration and incubated at room temperature to allow the tetrameric/dimeric forms to reach steady state. Assay measurements were performed in buffer comprising 50 mM TRIS pH 7.8, 100 mM NaPO4, pH 7.8, 0.001% v/v Tween20. […] DMSO concentration was maintained at 2% by back filling with DMSO solution. […] 3 μL of 100 mM glutamine diluted in assay buffer was then added and the reaction incubated at room temperature for 60 minutes. […] An artefact version of the assay where the 6His tagged GLS protein and glutamine were replaced with assay buffer was also used to rule out non specific effects on the assay components.

[2] = Homo sapiens, 120 h; NCI-H1703 cells, 5 days incubation, Sytox Green; read-out: Assay c) Prolif Mean IC50
[3] = Homo sapiens, NCI-H1703, 120 h, NCI-H1703 cells, 5 days incubation, Sytox Green; read-out: Assay c) Prolif Mean IC50
[4] = recombinant 6His tagged GLS protein (amino acids 63-669), 60 minutes reaction with glutamine

Row | IC50 [1] | IC50 (GLS1) | IC50 (GLS1; [4]) | Compound | IC50 (NCI-H1703 cells; [2]) | IC50 (NCI-H1703 cells; [3]) | IC50 (NCI-H1703 cells; NCI-H1703 cells, 5 days incubation, Sytox Green; read-out: Assay c) Prolif Mean IC50)
1 |  |  |  | CN(C)[C@@H](C(=O)Nc1nnc(N[C@@H]2CCN(c3cccnn3)C2)s1)c1ccccc1 (single isomer, unassigned) [Example 1(b)] | 0.0547 µM |  | 
2 |  |  |  | CN(C)[C@@H](C(=O)Nc1nnc(N[C@@H]2CCN(c3cccnn3)C2)s1)c1ccc(F)cc1 (single isomer, unassigned) [Example 2(b)] | 0.0979 µM |  | 
3 | 0.00191 µM | 0.522 µM |  | CN(C)[C@@H](C(=O)Nc1nnc(N[C@@H]2CCN(c3cccnn3)C2)s1)c1cccc(OC(F)(F)F)c1 (single isomer, unassigned) [Example 4(b)] |  | 0.00252 µM | 
4 |  |  |  | O=C(Nc1nnc(N[C@@H]2CCN(c3cccnn3)C2)s1)[C@@H](c1cccc(OC(F)F)c1)N1CCC1 (single isomer, unassigned) [Example 5(b)] | 0.0132 µM |  | 
5 | 0.0297 µM | 0.944 µM |  | COc1cccc([C@H](C(=O)Nc2nnc(N[C@@H]3CCN(c4cccnn4)C3)s2)N2CCC2)c1 (single isomer, unassigned) [Example 6(b)] |  | 0.0808 µM | 
6 | 0.00177 µM | 0.132 µM |  | O=C(Nc1nnc(N[C@@H]2CCN(c3cccnn3)C2)s1)[C@@H](c1ccc(F)c(OC(F)(F)F)c1)N1CCC1 (single isomer, unassigned) [Example 11(b)] |  | 0.0301 µM | 
7 |  |  |  | CN(C)[C@H](C(=O)Nc1nnc(N[C@@H]2CCN(c3cccnn3)C2)s1)c1ccccc1 [Example 1(a), (2S)-2-(Dimethylamino)-2-phenyl-N-[5-[[(3R)-1-pyridazin-3-ylpyrrolidin-3-yl]amino]-1,3,4-thiadiazol-2-yl]acetamide] | 0.0686 µM |  | 
8 |  |  |  | CN(C)[C@H](C(=O)Nc1nnc(N[C@@H]2CCN(c3cccnn3)C2)s1)c1ccc(F)cc1 [Example 2(a), (2S)-2-(dimethylamino)-2-(4-fluorophenyl)-N-[5-[[(3R)-1-pyridazin-3-ylpyrrolidin-3-yl]amino]-1,3,4-thiadiazol-2-yl]acetamide] | 0.0896 µM |  | 
9 | 0.0112 µM |  | 0.261 µM | CN(C)[C@H](C(=O)Nc1nnc(N[C@@H]2CCN(c3cccnn3)C2)s1)c1cccc(OC(F)F)c1 [Example 3(a), (2S)-2-[3-(difluoromethoxy)phenyl]-2-(dimethylamino)-N-[5-[[(3R)-1-pyridazin-3-ylpyrrolidin-3-yl]amino]-1,3,4-thiadiazol-2-yl]acetamide] | 0.0127 µM |  | 
10 | 0.000295 µM | 0.0524 µM |  | CN(C)[C@@H](C(=O)Nc1nnc(N[C@@H]2CCN(c3cccnn3)C2)s1)c1cccc(OC(F)F)c1 [Example 3(b), (2R)-2-[3-(difluoromethoxy)phenyl]-2-(dimethylamino)-N-[5-[[(3R)-1-pyridazin-3-ylpyrrolidin-3-yl]amino]-1,3,4-thiadiazol-2-yl]acetamide] | 0.00825 µM |  | 
11 | 0.000405 µM |  | 0.0564 µM | CN(C)[C@H](C(=O)Nc1nnc(N[C@@H]2CCN(c3cccnn3)C2)s1)c1cccc(OC(F)(F)F)c1 [Example 4(a), (2S)-2-(dimethylamino)-N-[5-[[(3R)-1-pyridazin-3-ylpyrrolidin-3-yl]amino]-1,3,4-thiadiazol-2-yl]-2-[3-(trifluoromethoxy)phenyl]acetamide] |  |  | 0.00841 µM
12 |  |  |  | O=C(Nc1nnc(N[C@@H]2CCN(c3cccnn3)C2)s1)[C@H](c1cccc(OC(F)F)c1)N1CCC1 [Example 5(a), (2S)-2-(azetidin-1-yl)-2-[3-(difluoromethoxy)phenyl]-N-[5-[[(3R)-1-pyridazin-3-ylpyrrolidin-3-yl]amino]-1,3,4-thiadiazol-2-yl]acetamide] | 0.0293 µM |  | 
13 | 0.022 µM |  | 0.981 µM | COc1cccc([C@@H](C(=O)Nc2nnc(N[C@@H]3CCN(c4cccnn4)C3)s2)N2CCC2)c1 [Example 6(a), (2S)-2-(azetidin-1-yl)-2-(3-methoxyphenyl)-N-[5-[[(3R)-1-pyridazin-3-ylpyrrolidin-3-yl]amino]-1,3,4-thiadiazol-2-yl]acetamide] |  | 0.0293 µM | 
14 | 0.00861 µM |  | 1.33 µM | O=C(Nc1nnc(N[C@@H]2CCN(c3cccnn3)C2)s1)[C@H](c1cccc(OC(F)(F)F)c1)N1CCC1 [Example 7(a), (2S)-2-(azetidin-1-yl)-N-[5-[[(3R)-1-pyridazin-3-ylpyrrolidin-3-yl]amino]-1,3,4-thiadiazol-2-yl]-2-[3-(trifluoromethoxy)phenyl]acetamide] | 0.00624 µM |  | 
15 | 0.000985 µM | 0.102 µM |  | O=C(Nc1nnc(N[C@@H]2CCN(c3cccnn3)C2)s1)[C@@H](c1cccc(OC(F)(F)F)c1)N1CCC1 [Example 7(b), (2R)-2-(azetidin-1-yl)-N-[5-[[(3R)-1-pyridazin-3-ylpyrrolidin-3-yl]amino]-1,3,4-thiadiazol-2-yl]-2-[3-(trifluoromethoxy)phenyl]acetamide] | 0.00245 µM |  | 
16 | 0.00191 µM |  | 0.053 µM | CN1CCc2ccccc2[C@H]1C(=O)Nc1nnc(N[C@@H]2CCN(c3cccnn3)C2)s1 [Example 8(a), (1S)-2-methyl-N-[5-[[(3R)-1-pyridazin-3-ylpyrrolidin-3-yl]amino]-1,3,4-thiadiazol-2-yl]-3,4-dihydro-1H-isoquinoline-1-carboxamide] | 0.00881 µM |  | 
17 | 0.0209 µM | 0.194 µM |  | CN1CCc2ccccc2[C@@H]1C(=O)Nc1nnc(N[C@@H]2CCN(c3cccnn3)C2)s1 [Example 8(b), (1R)-2-methyl-N-[5-[[(3R)-1-pyridazin-3-ylpyrrolidin-3-yl]amino]-1,3,4-thiadiazol-2-yl]-3,4-dihydro-1H-isoquinoline-1-carboxamide] | 0.0851 µM |  | 
18 | 0.00281 µM |  | 0.132 µM | Cc1ccc([C@@H](C(=O)Nc2nnc(N[C@@H]3CCN(c4cccnn4)C3)s2)N(C)C)cc1 [Example 9, (2S)-2-(dimethylamino)-2-(4-methylphenyl)-N-[5-[[(3R)-1-pyridazin-3-ylpyrrolidin-3-yl]amino]-1,3,4-thiadiazol-2-yl]acetamide] | 0.0448 µM |  | 
19 | 0.00212 µM |  | 0.0592 µM | Cc1cccc([C@@H](C(=O)Nc2nnc(N[C@@H]3CCN(c4cccnn4)C3)s2)N(C)C)c1 [Example 10, (2S)-2-(dimethylamino)-2-(3-methylphenyl)-N-[5-[[(3R)-1-pyridazin-3-ylpyrrolidin-3-yl]amino]-1,3,4-thiadiazol-2-yl]acetamide] | 0.0212 µM |  | 
20 | 0.0308 µM |  | 0.952 µM | O=C(Nc1nnc(N[C@@H]2CCN(c3cccnn3)C2)s1)[C@H](c1ccc(F)c(OC(F)(F)F)c1)N1CCC1 [Example 11(a), (2S)-2-(Azetidin-1-yl)-2-[4-fluoro-3-(trifluoromethoxy)phenyl]-N-[5-[[(3R)-1-pyridazin-3-ylpyrrolidin-3-yl]amino]-1,3,4-thiadiazol-2-yl]acetamide] |  | 0.0191 µM | 
21 | 0.0153 µM |  | 2.51 µM | O=C(Nc1nnc(N[C@@H]2CCN(c3ccc(F)nn3)C2)s1)[C@H](c1cccc(OC(F)(F)F)c1)N1CCC1 [Example 12(a), (2S)-2-(azetidin-1-yl)-N-[5-[[(3R)-1-(6-fluoropyridazin-3-yl)pyrrolidin-3-yl]amino]-1,3,4-thiadiazol-2-yl]-2-[3-(trifluoromethoxy)phenyl]acetamide] | 0.0116 µM |  | 
